Laboratory results from PubChem BioAssay (NCI).
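96-well plates; 48 h exposure; 5 concentrations. Endpoints by linear interpolation between flanking doses. Not reached: highest tested concentration assigned. TGI marks complete inhibition of growth.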

What was measured:
Assay in all cases: NCI anticancer screen, dose series, 48 h
[1] = tested on: 786-0 renal
[2] = tested on: NCI-H460 lung
[3] = tested on: MCF7 breast
[4] = tested on: OVCAR-5 ovarian
[5] = tested on: SK-MEL-28 melanoma
[6] = tested on: HCT-15 colon
[7] = tested on: DU-145 prostate
[8] = tested on: SF-295 CNS
[9] = tested on: SR leukemia
[10] = tested on: KM12 colon
[11] = tested on: MALME-3M melanoma
[12] = tested on: UO-31 renal
[13] = tested on: A498 renal
[14] = tested on: OVCAR-3 ovarian
[15] = tested on: OVCAR-8 ovarian
[16] = tested on: MDA-N
[17] = tested on: RXF 393 renal
[18] = tested on: MDA-MB-231 breast
[19] = tested on: NCI/ADR-RES ovarian
[20] = tested on: OVCAR-4 ovarian
[21] = tested on: SN12C renal
[22] = tested on: SNB-19 CNS
[23] = tested on: TK-10 renal
[24] = tested on: CCRF-CEM leukemia
[25] = tested on: SNB-75 CNS
[26] = tested on: COLO 205 colon
[27] = tested on: A549 NSCLC
[28] = tested on: ACHN renal
[29] = tested on: NCI-H226 lung
[30] = tested on: LOX IMVI melanoma
[31] = tested on: SK-MEL-5 melanoma
[32] = tested on: HCC-2998 colon
[33] = tested on: PC-3 prostate
[34] = tested on: UACC-257 melanoma
[35] = tested on: U251 CNS
[36] = tested on: HOP-62 NSCLC
[37] = tested on: SW-620 colon
[38] = tested on: HL-60(TB) leukemia
[39] = tested on: EKVX NSCLC
[40] = tested on: K-562 leukemia
[41] = tested on: CAKI-1 renal
[42] = tested on: SF-268 CNS
[43] = tested on: HCT-116 colon
[44] = tested on: NCI-H522 lung
[45] = tested on: BT-549 breast
[46] = tested on: MOLT-4 leukemia
[47] = tested on: NCI-H23 lung
[48] = tested on: IGROV1 ovarian
[49] = tested on: SK-MEL-2 melanoma
[50] = tested on: MDA-MB-435
[51] = tested on: HOP-92 NSCLC
[52] = tested on: T-47D breast
[53] = tested on: UACC-62 melanoma
[54] = tested on: HT29 colon
[55] = tested on: SF-539 CNS
[56] = tested on: M14 melanoma
[57] = tested on: SK-OV-3 ovarian
[58] = tested on: HS 578T breast
[59] = tested on: RPMI-8226 leukemia

CCOC(=O)C1C(=O)CC(O)(OCC)C(C(=O)OCC)C1c1ccc(OC)cc1 (configuration not stated)
TGI [1]: > 100 µM
TGI [2]: > 100 µM
TGI [3]: > 100 µM
TGI [4]: > 100 µM
TGI [5]: > 100 µM
TGI [6]: > 100 µM
TGI [7]: > 100 µM
TGI [8]: > 100 µM
TGI [9]: > 100 µM
TGI [10]: > 100 µM
TGI [11]: > 100 µM
TGI [12]: > 100 µM
TGI [13]: > 100 µM
TGI [14]: > 100 µM
TGI [15]: > 100 µM
TGI [16]: > 100 µM
TGI [17]: > 100 µM
TGI [18]: > 100 µM
TGI [19]: > 100 µM
TGI [20]: > 100 µM
TGI [21]: > 100 µM
TGI [22]: > 100 µM
TGI [23]: > 100 µM
TGI [24]: > 100 µM
TGI [25]: > 100 µM
TGI [26]: > 100 µM
TGI [27]: > 100 µM
TGI [28]: > 100 µM
TGI [29]: > 100 µM
TGI [30]: > 100 µM
TGI [31]: > 100 µM
TGI [32]: > 100 µM
TGI [33]: > 100 µM
TGI [34]: > 100 µM
TGI [35]: > 100 µM
TGI [36]: > 100 µM
TGI [37]: > 100 µM
TGI [38]: > 100 µM
TGI [39]: > 100 µM
TGI [40]: > 100 µM
TGI [41]: > 100 µM
TGI [42]: > 100 µM
TGI [43]: > 100 µM
TGI [44]: > 100 µM
TGI [45]: > 100 µM
TGI [46]: > 100 µM
TGI [47]: > 100 µM
TGI [48]: > 100 µM
TGI [49]: > 100 µM
TGI [50]: > 100 µM
TGI [51]: > 100 µM
TGI [52]: > 100 µM
TGI [53]: > 100 µM
TGI [54]: > 100 µM

CC1=C(/C=C/C(C)=C/C=C/C(C)=C/C(=O)OCC2OC(n3cc(F)c(=O)[nH]c3=O)CC2OC(=O)/C=C(C)/C=C/C=C(C)/C=C/C2=C(C)CCCC2(C)C)C(C)(C)CCC1 (configuration not stated)
TGI [1]: > 46.1 µM
TGI [2]: > 26.7 µM
TGI [3]: 36.8 µM
TGI [55]: > 100 µM
TGI [4]: > 67.6 µM
TGI [5]: > 77.6 µM
TGI [6]: > 57.1 µM
TGI [7]: > 46.3 µM
TGI [8]: > 40.2 µM
TGI [9]: > 59.6 µM
TGI [10]: > 74.7 µM
TGI [11]: > 100 µM
TGI [12]: > 26.3 µM
TGI [14]: > 39.5 µM
TGI [15]: > 66.7 µM
TGI [16]: > 48.4 µM
TGI [17]: > 100 µM
TGI [18]: > 86.8 µM
TGI [19]: > 100 µM
TGI [20]: > 81.8 µM
TGI [21]: > 31.6 µM
TGI [22]: > 100 µM
TGI [23]: > 58.4 µM
TGI [24]: > 28.8 µM
TGI [25]: > 100 µM
TGI [26]: > 60.1 µM
TGI [27]: > 48.5 µM
TGI [28]: > 48.3 µM
TGI [29]: > 69.3 µM
TGI [30]: 25.8 µM
TGI [31]: 19.8 µM
TGI [32]: 15 µM
TGI [33]: > 56.2 µM
TGI [34]: > 92.1 µM
TGI [56]: > 48.3 µM
TGI [35]: > 54.1 µM
TGI [36]: > 27.9 µM
TGI [37]: > 52.5 µM
TGI [38]: > 41.9 µM
TGI [39]: > 100 µM
TGI [40]: > 72.5 µM
TGI [57]: > 100 µM
TGI [41]: > 100 µM
TGI [42]: > 85.3 µM
TGI [43]: 27.1 µM
TGI [44]: 28.2 µM
TGI [45]: > 76.3 µM
TGI [46]: > 100 µM
TGI [47]: > 90 µM
TGI [58]: > 68.8 µM
TGI [59]: 42.6 µM
TGI [48]: 20 µM
TGI [49]: > 100 µM
TGI [50]: > 65.8 µM
TGI [51]: 37.1 µM
TGI [52]: > 64.7 µM
TGI [53]: > 23.8 µM
TGI [54]: > 100 µM
